Data taken from ChEMBL document CHEMBL1139608, “Non-hydroxamate 5-phenylpyrimidine-2,4,6-trione derivatives as selective inhibitors of tumor necrosis factor-alpha converting enzyme” (Bioorg Med Chem Lett, 2005).

Columns and labels:
Collagenase 3 = Collagenase 3 (Homo sapiens, UniProt P45452); assay: In vitro binding affinity against matrix metalloprotease 13
[1] = In vitro percent inhibition against aggrecanase at the concentration of 1 uM
[2] = biological target: Matrix metalloproteinase-9 (Homo sapiens, UniProt P14780); assay: In vitro binding affinity against matrix metalloprotease 9
[3] = biological target: 72 kDa type IV collagenase (Homo sapiens, UniProt P08253); assay: In vitro binding affinity against matrix metalloprotease 2
[4] = biological target: Disintegrin and metalloproteinase domain-containing protein 17 (Homo sapiens, UniProt P78536); assay: In vitro inhibitory concentration against human tumor necrosis factor-alpha converting enzyme
Interstitial collagenase = biological target: T1, Interstitial collagenase (Homo sapiens, UniProt P03956); assay: In vitro binding affinity against matrix metalloprotease 1
T1 sequence (P03956 whole entry): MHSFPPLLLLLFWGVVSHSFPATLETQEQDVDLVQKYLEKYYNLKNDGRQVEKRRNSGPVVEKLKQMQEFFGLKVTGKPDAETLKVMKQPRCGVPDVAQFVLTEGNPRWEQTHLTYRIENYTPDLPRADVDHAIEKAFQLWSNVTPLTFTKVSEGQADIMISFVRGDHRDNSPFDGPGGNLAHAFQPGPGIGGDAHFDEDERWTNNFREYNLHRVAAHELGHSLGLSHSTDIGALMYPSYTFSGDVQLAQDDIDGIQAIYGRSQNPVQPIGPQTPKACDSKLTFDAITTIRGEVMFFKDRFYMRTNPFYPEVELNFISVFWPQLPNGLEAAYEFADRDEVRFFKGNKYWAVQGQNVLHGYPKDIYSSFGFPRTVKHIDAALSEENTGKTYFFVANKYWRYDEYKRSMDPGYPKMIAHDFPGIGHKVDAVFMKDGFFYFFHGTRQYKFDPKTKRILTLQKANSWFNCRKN

Sequence of Matrix metalloproteinase-9 (P14780 whole entry): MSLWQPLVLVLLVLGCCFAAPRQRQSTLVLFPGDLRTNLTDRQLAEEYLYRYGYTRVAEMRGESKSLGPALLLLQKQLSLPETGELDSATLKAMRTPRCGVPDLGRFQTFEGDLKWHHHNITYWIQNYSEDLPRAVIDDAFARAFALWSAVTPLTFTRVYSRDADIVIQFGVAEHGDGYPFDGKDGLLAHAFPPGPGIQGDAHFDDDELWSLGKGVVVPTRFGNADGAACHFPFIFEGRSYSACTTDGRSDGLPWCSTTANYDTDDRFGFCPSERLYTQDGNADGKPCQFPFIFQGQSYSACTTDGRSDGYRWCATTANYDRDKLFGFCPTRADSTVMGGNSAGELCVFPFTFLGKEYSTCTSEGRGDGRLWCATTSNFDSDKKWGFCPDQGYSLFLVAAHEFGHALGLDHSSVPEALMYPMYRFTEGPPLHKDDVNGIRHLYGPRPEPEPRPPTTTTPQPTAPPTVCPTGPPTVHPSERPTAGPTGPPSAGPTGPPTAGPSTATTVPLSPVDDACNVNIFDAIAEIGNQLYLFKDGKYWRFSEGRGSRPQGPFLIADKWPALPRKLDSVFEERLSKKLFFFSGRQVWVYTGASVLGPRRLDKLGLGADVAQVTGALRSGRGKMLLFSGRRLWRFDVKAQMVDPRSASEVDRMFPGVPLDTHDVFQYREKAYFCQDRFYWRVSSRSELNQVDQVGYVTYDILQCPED
Sequence of Disintegrin and metalloproteinase domain-containing protein 17 (P78536 whole entry, the tested form may be a part): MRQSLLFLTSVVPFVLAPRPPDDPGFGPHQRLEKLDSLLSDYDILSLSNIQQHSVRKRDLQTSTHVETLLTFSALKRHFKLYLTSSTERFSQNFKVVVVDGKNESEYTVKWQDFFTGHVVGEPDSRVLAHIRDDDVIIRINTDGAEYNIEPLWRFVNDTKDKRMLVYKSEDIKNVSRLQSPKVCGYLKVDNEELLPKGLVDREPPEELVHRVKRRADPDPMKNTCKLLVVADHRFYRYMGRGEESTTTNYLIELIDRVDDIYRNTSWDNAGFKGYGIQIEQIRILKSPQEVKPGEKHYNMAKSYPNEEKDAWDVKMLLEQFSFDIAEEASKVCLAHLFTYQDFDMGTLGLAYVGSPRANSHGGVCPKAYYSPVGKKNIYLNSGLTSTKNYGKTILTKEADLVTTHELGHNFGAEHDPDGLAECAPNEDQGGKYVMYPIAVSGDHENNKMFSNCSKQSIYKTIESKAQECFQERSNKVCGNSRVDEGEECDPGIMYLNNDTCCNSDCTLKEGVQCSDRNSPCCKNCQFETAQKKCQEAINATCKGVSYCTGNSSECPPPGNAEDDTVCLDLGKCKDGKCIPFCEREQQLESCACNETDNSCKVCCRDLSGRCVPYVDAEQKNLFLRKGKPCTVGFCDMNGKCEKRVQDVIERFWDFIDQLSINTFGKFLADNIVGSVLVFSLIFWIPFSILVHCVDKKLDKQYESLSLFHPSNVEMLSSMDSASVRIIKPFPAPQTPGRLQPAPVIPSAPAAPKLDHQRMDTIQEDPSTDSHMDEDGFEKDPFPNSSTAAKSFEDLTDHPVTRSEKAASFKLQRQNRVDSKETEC
Sequence of 72 kDa type IV collagenase (P08253 whole entry, the tested form may be a part): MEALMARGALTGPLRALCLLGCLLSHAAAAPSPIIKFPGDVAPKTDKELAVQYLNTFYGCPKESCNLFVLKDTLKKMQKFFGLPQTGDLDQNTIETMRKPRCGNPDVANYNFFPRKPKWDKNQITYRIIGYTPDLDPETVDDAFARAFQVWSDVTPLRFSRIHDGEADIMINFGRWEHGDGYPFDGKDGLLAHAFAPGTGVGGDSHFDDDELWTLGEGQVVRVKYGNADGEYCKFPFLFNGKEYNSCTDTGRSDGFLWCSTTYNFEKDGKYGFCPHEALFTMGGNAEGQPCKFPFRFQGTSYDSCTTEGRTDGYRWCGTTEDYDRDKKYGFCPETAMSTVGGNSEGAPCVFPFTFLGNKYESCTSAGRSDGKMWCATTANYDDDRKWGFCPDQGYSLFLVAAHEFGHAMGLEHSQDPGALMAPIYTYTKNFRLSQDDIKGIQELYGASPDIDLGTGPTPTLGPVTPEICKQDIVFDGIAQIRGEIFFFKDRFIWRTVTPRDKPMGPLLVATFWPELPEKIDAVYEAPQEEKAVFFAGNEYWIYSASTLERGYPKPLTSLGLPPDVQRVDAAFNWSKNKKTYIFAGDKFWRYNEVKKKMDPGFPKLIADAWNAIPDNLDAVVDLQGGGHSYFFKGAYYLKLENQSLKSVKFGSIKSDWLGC

Cc1cc(COc2ccc(C3(N4CCN(c5ccc([N+](=O)[O-])cc5)CC4)C(=O)NC(=O)NC3=O)cc2)c2ccccc2n1
Ki (Collagenase 3): 356 nM | inhibition [1]: 0% | Ki [2]: 138 nM | Ki [3]: 116 nM | IC50 [4]: 2800 nM | Ki (Interstitial collagenase): > 4350 nM

Cc1cc(COc2ccc(C3(N4CCOCC4)C(=O)NC(=O)NC3=O)cc2)c2ccccc2n1
Ki (Collagenase 3): > 5020 nM | inhibition [1]: 1% | Ki [2]: > 2130 nM | Ki [3]: > 3330 nM | IC50 [4]: 535 nM | Ki (Interstitial collagenase): > 4950 nM

CC1(c2ccc(O)cc2)C(=O)NC(=O)NC1=O
Ki (Collagenase 3): > 5020 nM | inhibition [1]: 0% | Ki [2]: 850 nM | Ki [3]: 2530 nM | IC50 [4]: > 100000 nM | Ki (Interstitial collagenase): > 4950 nM

CC1(c2ccc(Oc3ccccc3)cc2)C(=O)NC(=O)NC1=O
Ki (Collagenase 3): 65 nM | Ki [2]: 52 nM | Ki [3]: 80 nM

CC(=O)c1ccc(N2CCN(C3(c4ccc(OCc5cc(C)nc6ccccc56)cc4)C(=O)NC(=O)NC3=O)CC2)cc1
Ki (Collagenase 3): > 5020 nM | inhibition [1]: 8% | Ki [2]: > 2130 nM | Ki [3]: > 3330 nM | IC50 [4]: 620 nM | Ki (Interstitial collagenase): > 4950 nM

Cc1cc(COc2ccc(C3(N4CCN(CCc5ccccc5)CC4)C(=O)NC(=O)NC3=O)cc2)c2ccccc2n1
Ki (Collagenase 3): 95 nM | inhibition [1]: 38% | Ki [2]: 85 nM | Ki [3]: 83 nM | IC50 [4]: 84 nM | Ki (Interstitial collagenase): > 4950 nM

Cc1cc(COc2ccc(C3(N4CCCCC4)C(=O)NC(=O)NC3=O)cc2)c2ccccc2n1
Ki (Collagenase 3): > 5020 nM | inhibition [1]: 0% | Ki [2]: > 2130 nM | Ki [3]: > 3330 nM | IC50 [4]: 855 nM | Ki (Interstitial collagenase): > 4950 nM

Cc1cc(COc2ccc(C3(N4CCN(C(C)C)CC4)C(=O)NC(=O)NC3=O)cc2)c2ccccc2n1
Ki (Collagenase 3): > 5020 nM | inhibition [1]: 0% | Ki [2]: > 2130 nM | Ki [3]: > 3330 nM | IC50 [4]: 96 nM | Ki (Interstitial collagenase): > 4950 nM

CC1(c2ccc(OCc3ccccc3)cc2)C(=O)NC(=O)NC1=O
Ki (Collagenase 3): 4020 nM | inhibition [1]: 0% | Ki [2]: > 2130 nM | Ki [3]: 600 nM | IC50 [4]: > 100000 nM | Ki (Interstitial collagenase): > 4950 nM

Cc1cc(COc2ccc(C3(N4CCN(C(=O)C(C)(C)C)CC4)C(=O)NC(=O)NC3=O)cc2)c2ccccc2n1
Ki (Collagenase 3): > 5020 nM | inhibition [1]: 0% | Ki [2]: > 2130 nM | Ki [3]: > 3330 nM | IC50 [4]: 5400 nM | Ki (Interstitial collagenase): > 4950 nM

Cc1cc(COc2ccc(C3(N4CCNCC4)C(=O)NC(=O)NC3=O)cc2)c2ccccc2n1
Ki (Collagenase 3): > 5020 nM | inhibition [1]: 0% | Ki [2]: > 2130 nM | Ki [3]: > 3330 nM | IC50 [4]: 1100 nM | Ki (Interstitial collagenase): > 4950 nM

Cc1cc(COc2ccc(C3(N4CCN(S(C)(=O)=O)CC4)C(=O)NC(=O)NC3=O)cc2)c2ccccc2n1
Ki (Collagenase 3): > 5020 nM | inhibition [1]: 5% | Ki [2]: > 2130 nM | Ki [3]: > 3330 nM | IC50 [4]: 275 nM | Ki (Interstitial collagenase): > 4950 nM

Cc1cc(COc2ccc(C3(N4CCN(C(=O)OC(C)(C)C)CC4)C(=O)NC(=O)NC3=O)cc2)c2ccccc2n1
Ki (Collagenase 3): > 5020 nM | inhibition [1]: 10% | Ki [2]: > 2130 nM | Ki [3]: > 3330 nM | IC50 [4]: 160 nM | Ki (Interstitial collagenase): > 4950 nM

Cc1cc(COc2ccc(C3(N4CCN(Cc5ccccc5)CC4)C(=O)NC(=O)NC3=O)cc2)c2ccccc2n1
Ki (Collagenase 3): > 5020 nM | inhibition [1]: 5% | Ki [2]: > 2130 nM | Ki [3]: > 3330 nM | IC50 [4]: 195 nM | Ki (Interstitial collagenase): > 4950 nM

Cc1cc(COc2ccc(C3(C)C(=O)NC(=O)NC3=O)cc2)c2ccccc2n1
Ki (Collagenase 3): 5020 nM | inhibition [1]: 0% | Ki [2]: > 2130 nM | Ki [3]: > 3330 nM | IC50 [4]: 1030 nM | Ki (Interstitial collagenase): > 4950 nM

CCCCCCN1CCN(C2(c3ccc(OCc4cc(C)nc5ccccc45)cc3)C(=O)NC(=O)NC2=O)CC1
Ki (Collagenase 3): > 5020 nM | inhibition [1]: 12% | Ki [2]: > 2130 nM | Ki [3]: > 3330 nM | IC50 [4]: 81 nM | Ki (Interstitial collagenase): > 4950 nM

Cc1cc(COc2ccc(C3(N4CCN(C)CC4)C(=O)NC(=O)NC3=O)cc2)c2ccccc2n1
Ki (Collagenase 3): > 5020 nM | inhibition [1]: 37% | Ki [2]: > 2130 nM | Ki [3]: > 3330 nM | IC50 [4]: 91 nM | Ki (Interstitial collagenase): > 4950 nM

Cc1cc(COc2ccc3cc(C4(C)C(=O)NC(=O)NC4=O)ccc3c2)c2ccccc2n1
inhibition [1]: 1% | Ki [3]: 3330 nM | IC50 [4]: > 100000 nM

Cc1cc(COc2ccc(C3(N4CCN(CC(C)(C)C)CC4)C(=O)NC(=O)NC3=O)cc2)c2ccccc2n1
Ki (Collagenase 3): > 5020 nM | inhibition [1]: 10% | Ki [2]: > 2130 nM | Ki [3]: > 3330 nM | IC50 [4]: 160 nM | Ki (Interstitial collagenase): > 4950 nM

Cc1cc(COc2ccc(C3(N4CCN(CCCc5ccccc5)CC4)C(=O)NC(=O)NC3=O)cc2)c2ccccc2n1
Ki (Collagenase 3): 5020 nM | inhibition [1]: 12% | Ki [2]: 2040 nM | Ki [3]: 3100 nM | IC50 [4]: 110 nM | Ki (Interstitial collagenase): > 4950 nM
